For the experiment, the system named is IgA immune complex induced lung injury. The experiment in a line: IgA immune complex-induced acute lung injury in the rat. The settings on record: conclusion in words. It counts as in vivo, rat (male Long-Evans). How it is done:
Groups of rats were dosed with either vehicle, SLN-OH (100 μpg), or with SLX-OH (100 μg) […] post induction of inflammation. Each bar represents the mean of 6 animals and vertical lines represent the standard error of the mean.
Adult male (300 g) specific pathogen-free Long-Evans rats purchased from Charles River Labs (Portage, Mich.) were employed in the studies. For the induction of IgG immune complex pulmonary inflammation rabbit polyclonal IgG rich in antibody to bovine serum albumin (antiBSA) was purchased from Organon Teknika (Westchester, PA). Intraperitoneal ketamine (10 mg/Kg) was administered for anesthesia. 2.5 mg of anti-BSA in a volume of 300 μl was instilled intratracheally via a small intratracheal catheter during inspiration after surgical exposure of the trachea. Intravenous injection of 10 mg BSA was injected intravenously to generate immune complex formation. Trace amounts of ^125 I-BSA and ^51 Cr-RBC were administered with the BSA as markers for plasma and RBC extravasation respectively. Rats were sacrificed 4 h later and lung injury was assessed by the ratio of radiolabelled albumin in the lungs relative to the circulation (permeability), the ratio of RBC in the lungs relative to the circulation (hemorrhage) and the amount of myeloperoxidase activity in a lung homogenate (neutrophil accumulation). For induction of IgA immune complex induced lung injury 1.2 mg of a murine myeloma IgA protein specific for dinitrophenol (DNP) was instilled intratracheally and 3.3 mg DNP-bovine serum albumin injected intravenously. Lung injury was assessed in the same manner described for IgG-induced lung injury.
SLX-OH, Z, the non-fucosylated control oligosaccharide SLN, or an equivalent volume of PBS were injected intravenously in three equally divided doses at 2, 2.5, and 3 h following deposition of immune complexes. This schedule for injections was selected since it coincides with the time during which rapid expression of E-selectin occurs in the pulmonary vasculature.

In the case of `CCO[C@@H]1O[C@H](CO)[C@H](O)[C@H](O[C@@H]2O[C@H](CO)[C@@H](O[C@@H]3O[C@H](CO)[C@H](O)[C@H](O[C@]4(C(=O)O)C[C@H](O)[C@@H](NC(C)=O)[C@H]([C@H](O)[C@H](O)CO)O4)[C@H]3O)[C@H](O[C@@H]3O[C@@H](C)[C@@H](O)[C@@H](O)[C@@H]3O)[C@H]2NC(C)=O)[C@H]1O` [Z, Ethyl(sodium(5-acetamido-3,5-dideoxy-α-D-glycero-D-galacto-2-nonulopyanosylonate))-(2-3)-O-(β-D-galactopyranosyl)-(1-4)-O-((α-L-fucopyranosyl)-(1-3))-O-(2-acetamido-2-deoxy-β-D-glucopyranosyl)-(1-3)-O-β-D-galactopyranoside], the “effect on IgA immune complex-induced neutrophil accumulation and pathological sequelae” value was “not IgA”.
